Measurements from patent US20060183909A1, “Compositions derived from quinoline and quinoxaline, preparation and use thereof” (priority 2001, published 2006).

The compounds below were run on xanthurenic acid receptor (assay: Screening: displacement of [3H]-XA binding to synaptic membranes at a fixed concentration). Conditions: not given.
Method: If this concentration produces the same or greater displacement than the same concentration of non-radiolabelled XA, then an IC50 is determined. […] The incubation time is 25 min. […] The filters are placed in scintillation vials to which 5 ml of Rotiszint® (Roth) are added and the vials are counted in a Beckman LS6000sc liquid scintillation counter. Specific binding is given as the difference between total binding and nonspecific binding. The percentage inhibition of binding that the synthetic compounds produce is calculated for each compound in relation to its positive control.

effect on xanthurenic acid binding, in words	Compound
increase the binding of xanthurenic acid	O=C(O)c1cc(O)c2cccc(Br)c2n1 [Compound 3x, 4-hydroxy-8-bromo-quinoline-2-carboxylic acid]
increase the binding of xanthurenic acid	Cl.NCCCc1cc(O)c2nc(C(=O)O)cc(O)c2c1 [Compound 22c, 4,8-dihydroxy-6-(3-amino-propyl)-quinoline-2-carboxylic acid hydrochloride]

Same assay, conditions: compound at 10 μM; 200 nM [3H]-XA, synaptic membranes

real increase in total binding (potentiation)	Compound
(+200% real increase	O=C(O)c1cc(O)c2cccc(Br)c2n1 [Compound 3x, 4-hydroxy-8-bromo-quinoline-2-carboxylic acid]
(+100% real increase	Cl.NCCCc1cc(O)c2nc(C(=O)O)cc(O)c2c1 [Compound 22c, 4,8-dihydroxy-6-(3-amino-propyl)-quinoline-2-carboxylic acid hydrochloride]

Same assay, conditions: compound at 10 μM; 200 nM [3H]-XA, synaptic membranes; xanthurenic acid set arbitrarily to 100%

Compound	% inhibition of XA binding at 10 μM*
COc1cccc2ccc(C(=O)O)nc12	13%
Cc1cc(O)c2nc(C(=O)O)cc(O)c2c1 [Compound 3n, 4,8-dihydroxy-6-methyl-quinoline-2-carboxylic acid]	21.2%
COc1ccc(Br)c2ccc(C(=O)O)nc12 [Compound 4g, 8-methoxy-5-bromo-quinoline-2-carboxylic acid]	0%
CCCc1cc(O)c2nc(C(=O)O)cc(O)c2c1 [Compound 19r, 4,8-dihydroxy-6-propyl-quinoline-2-carboxylic acid]	58.1%
CCCCCCCc1cc(O)c2nc(C(=O)O)cc(O)c2c1 [Compound 22b, 4,8-dihydroxy-6-heptyl-quinoline-2-carboxylic acid]	38%
Cl.NCCCc1cc(O)c2nc(C(=O)O)cc(O)c2c1 [Compound 22c, 4,8-dihydroxy-6-(3-amino-propyl)-quinoline-2-carboxylic acid hydrochloride]	Potentiation
CC(=O)Nc1cccc2c(O)cc(C(=O)O)nc12 [Compound 28a, 8-acetylamino-4-hydroxy-quinoline-2-carboxylic acid]	0%
CC(C)(C)C(=O)Nc1cccc2c(O)cc(C(=O)O)nc12 [Compound 28b, 8-pivaloylamino-4-hydroxy-quinoline-2-carboxylic acid]	0%
Cl.Nc1cc(N)c2nc(C(=O)O)cc(O)c2c1 [Compound 32d, 6,8-diamino-4-hydroxy-quinoline-2-carboxylic acid hydrochloride]	117%
CNc1cc(C(=O)O)nc2c(N)cccc12.Cl [Compound 38d, 4-(N-methylamino)-8-amino-quinoline-2-carboxylic acid hydrochloride]	72%
O=C(O)c1nc2c(O)cccc2c(O)c1CN1CCOCC1 [Compound 39b, 3-(N-morpholinomethyl)-4,8-dihydroxy-quinoline-2-carboxylic acid]	77%
O=C(O)c1nc2c(OCc3ccccc3)cccc2c(O)c1CN1CCCC1 [Compound 40a, 3-(N-pyrrolidinomethyl)-8-benzyloxy-4-hydroxy-quinoline-2-carboxylic acid]	83%
CN(C)c1cccc2c(O)cc(C(=O)O)nc12 [Compound 41d, 8-dimethylamino-4-hydroxy-quinoline-2-carboxylic acid]	43%
O=C(O)c1nc2c(O)cccc2c(O)c1Br [Compound 52c, 3-bromo-4,8-dihydroxy-quinoline-2-carboxylic acid]	143%
O=C(O)c1nc2c(O)c(Br)ccc2c(O)c1Br [Compound 56c, 3,7-dibromo-4,8-dihydroxy-quinoline-2-carboxylic acid]	112%
O=C(O)c1nc2c(O)cccc2[nH]c1=O [Compound 59c, 8-hydroxy-3-oxo-3,4-dihydroquinoxaline-2-carboxylic acid]	97%
O=C(O)CC1Nc2c(O)cccc2NC1=O (stereo not shown) [Compound 60c, [8-(hydroxy)-3-oxo-3,4-dihydroquinoxaline-2(1H)-yl]acetic acid]	69%
Cl.O=C(O)c1cc(O)c2cc(C3CCCCN3)cc(O)c2n1 (stereo not shown) [Compound 61b, 4,8-dihydroxy-6-piperidin-2-yl-quinoline-2-carboxylic acid hydrochloride]	97%
Cl.O=C(O)c1cc(O)c2cccc(-c3nn[nH]n3)c2n1 [Compound 62b, 4-hydroxy-8-(2H-tetrazol-5-yl)-quinoline-2-carboxylic acid hydrochloride]	94%
N#Cc1cc(Br)cc2c(O)cc(C(=O)O)nc12 [Compound 63c, 6-bromo-8-cyano-4-hydroxy-quinoline-2-carboxylic acid]	46%
N#Cc1cccc2c(O)c(Br)c(C(=O)O)nc12 [Compound 66b, 3-bromo-8-cyano-4-hydroxy-quinoline-2-carboxylic acid]	69%
N#Cc1cccc2c(O)c(C#Cc3ccccc3)c(C(=O)O)nc12 [Compound 67c, 8-cyano-4-hydroxy-3-phenylethynyl-quinoline-2-carboxylic acid]	0%
CCc1cc(C#N)c2nc(C(=O)O)cc(O)c2c1 [Compound 69d, 8-cyano-6-ethyl-4-hydroxy-quinoline-2-carboxylic acid]	26%

The next lines start with the values.

% inhibition of XA binding at 10 μM*	Compound
7.7%	Nc1cc(C(=O)O)nc2c(N)cccc12 [17'b, 4,8-diamino-quinoline-2-carboxylic acid]
42%	O=C(O)c1cc(O)c2c(Br)ccc(O)c2n1 [Compound 3c, 4,8-dihydroxy-5-bromo-quinoline-2-carboxylic acid]
48%	Cc1ccc(O)c2nc(C(=O)O)cc(O)c12 [Compound 3e, 4,8-dihydroxy-5-methyl-4-quinoline-2-carboxylic acid]
84%	O=C(O)c1cc(O)c2c(CO)ccc(O)c2n1 [Compound 3g, 4,8-dihydroxy-5-hydroxymethyl-4-quinoline-2-carboxylic acid]
23.4%	Cc1ccc(N)c2nc(C(=O)O)cc(O)c12 [Compound 3v, 4-hydroxy-5-methyl-8-amino-quinoline-2-carboxylic acid]
0%	Cc1cc(N)c2nc(C(=O)O)cc(O)c2c1 [Compound 3w, 4-hydroxy-6-methyl-8-amino-quinoline-2-carboxylic acid]
Potentiation	O=C(O)c1cc(O)c2cccc(Br)c2n1 [Compound 3x, 4-hydroxy-8-bromo-quinoline-2-carboxylic acid]
120%	O=C(O)c1cc(O)c2cccc(OCc3ccccc3)c2n1 [Compound 3y, 4-hydroxy-8-benzyloxy-quinoline-2-carboxylic acid]
0%	Nc1cccc2ccc(C(=O)O)nc12 [Compound 4f, 8-amino-quinoline-2-carboxylic acid]
94.5%	O=C(O)c1cc(-c2ccccc2)c2cccc(O)c2n1 [Compound 10b, 8-hydroxy-4-phenyl-quinoline-2-carboxylic acid]
1.8%	O=C(O)c1cc(O)c2c(-c3ccccc3)ccc(O)c2n1 [Compound 19a, 4,8-dihydroxy-5-phenyl-quinoline-2-carboxylic acid]
54.5%	COc1ccc(-c2cc(O)c3nc(C(=O)O)cc(O)c3c2)cc1 [Compound 19g, 4,8-dihydroxy-6-(4-methoxy-phenyl)-quinoline-2-carboxylic acid]
50%	O=C(O)c1ccc2c(-c3ccccc3)ccc(O)c2n1 [Compound 19t, 8-hydroxy-5-phenyl-quinoline-2-carboxylic acid]
54%	O=C(O)c1cc(O)c2cc(CCc3ccccc3)cc(O)c2n1 [Compound 22a, 4,8-dihydroxy-6-phenethyl-quinoline-2-carboxylic acid]
0%	O=C(O)c1cc(O)c2cc(CNCc3ccccc3)cc(O)c2n1 [Compound 26a, 4,8-dihydroxy-6-(benzylamino-methyl)-quinoline-2-carboxylic acid]
48.5%	O=C(Nc1cccc2c(O)cc(C(=O)O)nc12)c1ccccc1 [Compound 28c, 8-benzoylamino-4-hydroxy-quinoline-2-carboxylic acid]
97%	COC(=O)c1cc(O)c2cc(Nc3ccccc3)cc(N)c2n1 [Compound 33c, Methyl-6-(N-anilino)-8-amino-4-hydroxy-quinoline-2-carboxylate]
94%	O=C(O)c1cc(O)c2cccc(F)c2n1 [Compound 36c, 8-fluoro-4-hydroxy-quinoline-2-carboxylic acid]
77%	NC(=O)c1cccc2c(O)cc(C(=O)O)nc12 [Compound 37c, 8-carboxamide-4-hydroxy-quinoline-2-carboxylate acid]
103%	O=C(O)c1cc(O)c2ccc(CCc3ccccc3)c(O)c2n1 [Compound 55b, 4,8-dihydroxy-7-phenethyl-quinoline-2-carboxylic acid]
14%	N#Cc1cc(-c2ccccc2)cc2c(O)cc(C(=O)O)nc12 [Compound 64b, 8-cyano-4-hydroxy-6-phenyl-quinoline-2-carboxylic acid]
18%	N#Cc1cc(CCc2ccccc2)cc2c(O)cc(C(=O)O)nc12 [Compound 65d, 8-cyano-4-hydroxy-6-phenethyl-quinoline-2-carboxylic acid]
69%	Nc1ccc(-c2ccccc2)c2c(O)cc(C(=O)O)nc12 [Compound 73c, 5-phenyl-8-amino-4-hydroxy-quinoline-2-carboxylic acid]
31%	Nc1ccc(CCCO)c2c(O)cc(C(=O)O)nc12 [Compound 75c, 5-hydroxypropyl-8-amino-4-hydroxy quinoline-2-carboxylic acid]

Same assay, conditions: compound at 50 μM; 200 nM [3H]-XA, synaptic membranes; xanthurenic acid set arbitrarily to 100%

% inhibition of XA binding at 50 μM* [%]	Compound
77	Cc1ccc(S(=O)(=O)Nc2cc(C(=O)O)nc3c(O)cccc23)cc1 [Compound 16a, 8-hydroxy-4-(toluene-4-sulfonylamino)-quinoline-2-carboxylic acid]
